Columns and labels:
[1] = target: T1, FGFR3 (Homo sapiens, UniProt P22607); experiment: KINOMEscan enzyme binding assay FGFR3; settings: KINOMEscan (DiscoveRx); pKd = -log Kd, Kd in M
T1 construct: purchased DiscoveRx Corporation (assay service)
Description: (§1) Enzyme Binding Assays (KINOMEscan®) Kinase enzyme binding affinities of compounds disclosed herein were determined using the KINOMEscan® technology performed by DiscoveRx Corporation, San Diego, Calif., USA (www.kinomescan.com). Table A2 reports the obtained pKd values, with Kd (M) being the inhibitor binding constant value and with pKd being −log Kd: […]

[2] = target: T2, FGFR4 (Homo sapiens, UniProt P22455); experiment: KINOMEscan enzyme binding assay FGFR4; settings: KINOMEscan (DiscoveRx); pKd = -log Kd, Kd in M
T2 construct: purchased DiscoveRx Corporation (assay service)
T2 sequence (P22455 22-802): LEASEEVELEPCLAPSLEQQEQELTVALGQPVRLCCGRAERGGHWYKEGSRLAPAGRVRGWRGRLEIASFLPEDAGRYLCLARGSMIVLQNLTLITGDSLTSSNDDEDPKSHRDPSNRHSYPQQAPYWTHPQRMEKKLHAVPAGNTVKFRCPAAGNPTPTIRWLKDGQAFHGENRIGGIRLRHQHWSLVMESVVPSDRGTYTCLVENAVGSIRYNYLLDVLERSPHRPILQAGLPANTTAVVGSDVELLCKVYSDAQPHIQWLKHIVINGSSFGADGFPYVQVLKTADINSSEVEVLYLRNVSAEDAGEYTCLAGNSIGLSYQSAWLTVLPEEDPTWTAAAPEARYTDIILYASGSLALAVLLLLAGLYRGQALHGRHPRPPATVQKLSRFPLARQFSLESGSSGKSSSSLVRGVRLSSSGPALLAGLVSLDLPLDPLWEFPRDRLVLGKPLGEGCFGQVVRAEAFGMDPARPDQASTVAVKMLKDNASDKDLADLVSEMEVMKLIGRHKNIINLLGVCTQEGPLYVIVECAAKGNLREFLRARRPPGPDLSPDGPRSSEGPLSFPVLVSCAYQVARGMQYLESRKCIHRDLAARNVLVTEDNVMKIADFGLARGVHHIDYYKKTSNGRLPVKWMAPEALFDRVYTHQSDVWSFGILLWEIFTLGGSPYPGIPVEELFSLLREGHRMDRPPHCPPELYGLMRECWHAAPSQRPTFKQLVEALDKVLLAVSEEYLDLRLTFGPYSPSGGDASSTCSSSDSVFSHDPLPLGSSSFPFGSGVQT
Description: as §1

[3] = target: T3, VEGFR2 (Homo sapiens, UniProt P35968); experiment: KINOMEscan enzyme binding assay VEGFR2; settings: KINOMEscan (DiscoveRx); pKd = -log Kd, Kd in M
T3 construct: purchased DiscoveRx Corporation (assay service)
T3 sequence (P35968 20-1356): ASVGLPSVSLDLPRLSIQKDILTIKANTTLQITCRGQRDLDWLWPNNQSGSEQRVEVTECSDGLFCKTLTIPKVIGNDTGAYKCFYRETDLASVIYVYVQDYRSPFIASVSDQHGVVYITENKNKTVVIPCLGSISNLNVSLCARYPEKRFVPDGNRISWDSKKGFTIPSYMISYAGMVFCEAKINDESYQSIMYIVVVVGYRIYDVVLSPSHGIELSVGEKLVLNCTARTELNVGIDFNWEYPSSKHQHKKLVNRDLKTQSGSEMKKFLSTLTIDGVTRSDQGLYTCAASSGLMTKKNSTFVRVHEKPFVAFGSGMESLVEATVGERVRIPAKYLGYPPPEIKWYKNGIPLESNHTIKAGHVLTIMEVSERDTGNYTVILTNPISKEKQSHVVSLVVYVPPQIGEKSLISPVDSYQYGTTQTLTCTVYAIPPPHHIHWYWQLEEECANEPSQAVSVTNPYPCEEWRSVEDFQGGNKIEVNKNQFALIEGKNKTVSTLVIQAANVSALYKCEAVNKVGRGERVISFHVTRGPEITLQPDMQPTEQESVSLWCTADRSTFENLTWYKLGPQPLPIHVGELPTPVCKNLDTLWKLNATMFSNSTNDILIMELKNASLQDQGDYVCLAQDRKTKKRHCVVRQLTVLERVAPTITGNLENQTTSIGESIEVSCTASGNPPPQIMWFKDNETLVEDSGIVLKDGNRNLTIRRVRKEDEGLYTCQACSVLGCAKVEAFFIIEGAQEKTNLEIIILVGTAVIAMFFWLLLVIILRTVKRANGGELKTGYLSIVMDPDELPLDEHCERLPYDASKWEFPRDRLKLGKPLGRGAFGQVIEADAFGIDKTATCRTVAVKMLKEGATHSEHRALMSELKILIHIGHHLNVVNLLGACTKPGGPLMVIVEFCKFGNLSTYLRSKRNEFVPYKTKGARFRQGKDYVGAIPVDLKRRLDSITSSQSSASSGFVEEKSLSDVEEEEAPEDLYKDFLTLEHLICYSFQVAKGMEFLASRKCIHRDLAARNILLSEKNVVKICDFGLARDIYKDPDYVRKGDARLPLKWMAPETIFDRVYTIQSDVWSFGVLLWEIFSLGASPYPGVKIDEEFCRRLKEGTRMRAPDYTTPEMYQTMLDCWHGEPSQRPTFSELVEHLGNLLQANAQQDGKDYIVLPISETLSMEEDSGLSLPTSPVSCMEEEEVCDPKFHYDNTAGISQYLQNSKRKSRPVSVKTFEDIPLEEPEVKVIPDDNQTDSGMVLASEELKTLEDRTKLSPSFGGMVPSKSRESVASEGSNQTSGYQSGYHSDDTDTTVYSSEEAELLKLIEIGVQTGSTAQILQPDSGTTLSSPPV
Description: as §1

[4] = target: T4, FGFR1 (Homo sapiens, UniProt P11362); experiment: KINOMEscan enzyme binding assay FGFR1; settings: KINOMEscan (DiscoveRx); pKd = -log Kd, Kd in M
T4 construct: purchased DiscoveRx Corporation (assay service)
T4 sequence (P11362 22-822): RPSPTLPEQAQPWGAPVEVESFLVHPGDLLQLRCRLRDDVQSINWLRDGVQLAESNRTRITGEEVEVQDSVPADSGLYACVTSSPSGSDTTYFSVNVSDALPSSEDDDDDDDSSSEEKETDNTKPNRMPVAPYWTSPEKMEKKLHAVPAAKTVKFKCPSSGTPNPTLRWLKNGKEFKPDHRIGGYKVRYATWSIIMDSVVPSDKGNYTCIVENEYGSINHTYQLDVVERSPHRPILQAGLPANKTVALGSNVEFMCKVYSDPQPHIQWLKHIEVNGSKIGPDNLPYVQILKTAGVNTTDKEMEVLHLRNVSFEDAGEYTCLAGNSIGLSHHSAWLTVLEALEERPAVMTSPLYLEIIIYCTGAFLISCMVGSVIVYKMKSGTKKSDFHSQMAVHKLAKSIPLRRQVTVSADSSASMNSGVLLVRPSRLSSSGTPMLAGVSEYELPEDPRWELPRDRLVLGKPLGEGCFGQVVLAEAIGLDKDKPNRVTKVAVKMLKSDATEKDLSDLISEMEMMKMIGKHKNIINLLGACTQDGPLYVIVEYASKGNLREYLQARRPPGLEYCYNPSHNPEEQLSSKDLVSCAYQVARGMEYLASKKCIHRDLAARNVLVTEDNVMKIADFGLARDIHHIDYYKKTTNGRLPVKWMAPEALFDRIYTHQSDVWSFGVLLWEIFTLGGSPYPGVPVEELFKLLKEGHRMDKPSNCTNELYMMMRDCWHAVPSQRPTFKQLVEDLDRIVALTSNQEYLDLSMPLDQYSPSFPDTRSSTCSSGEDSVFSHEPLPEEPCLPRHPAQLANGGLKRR
Description: as §1

[5] = target: T5, FGFR2 (Homo sapiens, UniProt P21802); experiment: KINOMEscan enzyme binding assay FGFR2; settings: KINOMEscan (DiscoveRx); pKd = -log Kd, Kd in M
T5 construct: purchased DiscoveRx Corporation (assay service)
T5 sequence (P21802 22-821): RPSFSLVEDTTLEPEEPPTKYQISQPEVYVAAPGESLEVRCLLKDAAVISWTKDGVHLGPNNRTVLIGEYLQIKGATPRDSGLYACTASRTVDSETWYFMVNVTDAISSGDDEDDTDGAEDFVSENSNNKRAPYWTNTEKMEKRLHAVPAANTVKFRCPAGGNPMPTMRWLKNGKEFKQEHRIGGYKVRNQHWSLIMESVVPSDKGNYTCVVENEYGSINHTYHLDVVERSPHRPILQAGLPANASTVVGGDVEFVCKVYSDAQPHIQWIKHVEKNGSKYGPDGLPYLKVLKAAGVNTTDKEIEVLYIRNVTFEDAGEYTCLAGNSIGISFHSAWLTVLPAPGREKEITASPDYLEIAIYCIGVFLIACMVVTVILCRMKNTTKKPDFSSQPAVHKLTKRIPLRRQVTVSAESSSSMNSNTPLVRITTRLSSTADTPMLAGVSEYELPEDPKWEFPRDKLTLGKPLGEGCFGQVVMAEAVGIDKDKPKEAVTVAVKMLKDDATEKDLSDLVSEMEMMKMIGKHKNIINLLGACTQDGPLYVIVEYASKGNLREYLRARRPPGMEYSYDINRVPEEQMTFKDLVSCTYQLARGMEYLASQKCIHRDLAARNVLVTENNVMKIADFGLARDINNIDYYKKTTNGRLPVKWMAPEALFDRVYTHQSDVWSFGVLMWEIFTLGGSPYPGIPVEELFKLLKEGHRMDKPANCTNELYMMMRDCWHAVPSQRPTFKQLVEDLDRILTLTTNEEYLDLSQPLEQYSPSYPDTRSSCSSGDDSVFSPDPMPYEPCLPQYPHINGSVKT
Description: as §1

T1 sequence (P22607 23-806): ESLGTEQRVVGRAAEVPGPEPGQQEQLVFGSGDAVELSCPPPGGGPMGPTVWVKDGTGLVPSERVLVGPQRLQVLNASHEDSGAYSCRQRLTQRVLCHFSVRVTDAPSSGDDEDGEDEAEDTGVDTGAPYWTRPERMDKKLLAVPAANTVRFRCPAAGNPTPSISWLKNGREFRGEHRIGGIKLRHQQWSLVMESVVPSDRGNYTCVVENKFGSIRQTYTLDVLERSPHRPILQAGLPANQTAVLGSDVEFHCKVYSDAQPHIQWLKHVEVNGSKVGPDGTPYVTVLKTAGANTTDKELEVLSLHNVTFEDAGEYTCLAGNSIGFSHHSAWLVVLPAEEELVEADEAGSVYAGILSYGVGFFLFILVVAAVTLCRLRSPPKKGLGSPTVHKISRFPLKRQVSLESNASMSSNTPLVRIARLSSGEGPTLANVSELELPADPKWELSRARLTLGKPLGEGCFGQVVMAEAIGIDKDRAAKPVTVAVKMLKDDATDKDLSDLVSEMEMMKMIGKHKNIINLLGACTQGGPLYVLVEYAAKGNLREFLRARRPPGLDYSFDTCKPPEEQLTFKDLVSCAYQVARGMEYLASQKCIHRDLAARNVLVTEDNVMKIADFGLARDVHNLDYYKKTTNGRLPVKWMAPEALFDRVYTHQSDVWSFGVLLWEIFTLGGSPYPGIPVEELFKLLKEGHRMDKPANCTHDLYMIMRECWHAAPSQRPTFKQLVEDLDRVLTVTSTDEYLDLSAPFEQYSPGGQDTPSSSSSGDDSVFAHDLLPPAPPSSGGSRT

| SMILES | Kd [1] [nM] | Kd [2] [nM] | Kd [3] [nM] | Kd [4] [nM] | Kd [5] [nM] | melting point [°C] |
| --- | --- | --- | --- | --- | --- | --- |
| COc1cc(OC)c(Cl)c(N2CCN(C(C)C)Cc3c2ccc2ncc(-c4cnn(C)c4)nc32)c1Cl [Compound 5] | 14.1 | 77.6 | 263 | 7.24 | 26.9 |  |
| CC(C)N1CCN(c2cc(O)cc(O)c2F)c2ccc3ncc(-c4cnn(C)c4)nc3c2C1 [Compound 9] | > 3020 | > 3020 | > 3020 | 977 | > 3020 |  |
| COc1cc(O)cc(N2CCN(C(C)C)Cc3c2ccc2ncc(-c4cnn(C)c4)nc32)c1F [Compound 11] | 8.91 | 60.3 | 123 | 3.89 | 44.7 |  |
| COc1cc(OC)c(F)c(N2CCN(C(C)C)Cc3c2ccc2ncc(-c4cnn(C)c4)cc32)c1F [Compound 12] | 10.7 | 38 | 115 | 3.09 | 19.5 |  |

Molecules with a lower Kd [1], results first:

| Kd [1] [nM] | Kd [2] [nM] | Kd [3] [nM] | Kd [4] [nM] | Kd [5] [nM] | melting point [°C] | SMILES |
| --- | --- | --- | --- | --- | --- | --- |
| 2.4 | 11 | 45.7 | 0.794 | 4.27 | 166 | COc1cc(OC)c(F)c(N2CCN(C(C)C)Cc3c2ccc2ncc(-c4cnn(C)c4)nc32)c1 [Compound 1] |
| 4.17 | 8.91 | 93.3 | 1.48 | 6.03 |  | COc1cc(OC)c(F)c(N2CCN(C(C)C)Cc3c2ccc2ncc(-c4cnn(C)c4)cc32)c1 [Compound 2] |
| 5.5 | 15.8 | 70.8 | 1.55 | 11.7 |  | COc1cc(OC)c(F)c(N2CCN(C(C)C)Cc3c2ccc2ncc(-c4cn[nH]c4)nc32)c1 [Compound 3] |
| 7.41 | 27.5 | 58.9 | 2.09 | 19.1 |  | COc1cc(OC)c(Cl)c(N2CCN(C(C)C)Cc3c2ccc2ncc(-c4cnn(C)c4)nc32)c1 [Compound 4] |
| 7.94 | 18.2 | 275 | 2.29 | 39.8 |  | COc1cc(OC)c(F)c(N2CCN(C(C)C)Cc3c2ccc2ncc(-c4cn[nH]c4)cc32)c1 [Compound 16] |

From US11155555B2, “Compounds” (Janssen Pharmaceutica NV, priority 2015, dated 2021)
